From US11945822B2, “Pyrazolo-triazine and/or pyrazolo-pxrimidine derivatives as selective inhibitor of cyclin dependent kinase” (QURIENT CO., LTD., priority 2018, dated 2024)

Legend:
H460 = test: Cellular H460 viability assay (CellTiter-Glo, 72 hours); format: cell-based; settings: Homo sapiens, NCI-H460
How it was run: (§1)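 Steps: seed cells at per-line density; add compound, DMSO vehicle kept under 0.1% final; incubate 72 h, 37 °C, 5% CO2; lyse with CellTiter-Glo and read luminescence; run in duplicate.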

MM.1S = test: Cellular MM.1S viability assay (CellTiter-Glo, 72 hours); format: cell-based; settings: Homo sapiens, MM1.S
How it was run: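 Cells seeded at 1×10^4/well (MM.1S), 5×10^3 (OVCAR-3) or 1×10^3 (A2780), grown in RPMI-1640 with 10% FBS. After 24 h, compound added at 0.0015–10 uM, final DMSO below 0.1%, for 72 h at 37° C. Viability read by CellTiter-Glo luminescence in duplicate, with curve fitting.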

CDK2/Cyclin A = molecular target: T1, CDK2/Cyclin A (Homo sapiens, UniProt P24941); test: Enzymatic assay for CDK2 (FRET based LANCE Ultra kinase assay); format: biochemical; settings: read-out: CDK2 enzymatic activity (IC50 range)
T1 construct: purchased Invitrogen PV6290
How it was run: (§2)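 Each CDK complex ([…]) phosphorylated 68 nM ULight-MBP peptide with ATP at Km for 60 min at 23° C., against 8 compound doses (4-fold dilutions). EDTA/Eu-anti-phospho-MBP detection, 60 min, then TR-FRET emission at 615 and 665 nm.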

RPMI-8226 = test: Cellular RPMI-8226 viability assay (CellTiter-Glo, 72 hours); format: cell-based; settings: Homo sapiens
How it was run: as §1

CDK7/Cyclin H/MNAT1 = molecular target: T2, CDK7/Cyclin H/MNAT1 (Homo sapiens, UniProt P50613); test: Enzymatic assay for CDK7 (FRET based LANCE Ultra kinase assay); format: biochemical; settings: for IC50: read-out: CDK7 enzymatic activity (IC50 range)
T2 construct: purchased Invitrogen PR6749B
T2 sequence (P50613 whole entry): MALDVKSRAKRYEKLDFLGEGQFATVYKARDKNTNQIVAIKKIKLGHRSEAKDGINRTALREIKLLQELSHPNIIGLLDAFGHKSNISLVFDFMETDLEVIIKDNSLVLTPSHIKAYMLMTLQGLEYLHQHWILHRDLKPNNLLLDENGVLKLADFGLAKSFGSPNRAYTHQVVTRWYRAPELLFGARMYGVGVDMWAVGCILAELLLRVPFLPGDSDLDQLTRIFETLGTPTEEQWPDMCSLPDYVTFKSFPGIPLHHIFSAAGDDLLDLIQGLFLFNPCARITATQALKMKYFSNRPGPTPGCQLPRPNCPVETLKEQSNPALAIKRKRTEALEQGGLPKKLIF
T2 sequence (P51946 whole entry partner): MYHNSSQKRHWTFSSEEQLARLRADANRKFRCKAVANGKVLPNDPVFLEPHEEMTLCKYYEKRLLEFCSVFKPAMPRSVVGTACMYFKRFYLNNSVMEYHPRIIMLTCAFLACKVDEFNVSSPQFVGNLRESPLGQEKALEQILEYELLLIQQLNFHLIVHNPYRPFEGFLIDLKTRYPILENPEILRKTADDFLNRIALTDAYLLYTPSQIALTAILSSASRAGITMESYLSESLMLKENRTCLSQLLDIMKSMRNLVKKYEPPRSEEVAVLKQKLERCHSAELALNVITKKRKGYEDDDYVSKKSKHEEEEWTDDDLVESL
T2 sequence (P51948 whole entry partner): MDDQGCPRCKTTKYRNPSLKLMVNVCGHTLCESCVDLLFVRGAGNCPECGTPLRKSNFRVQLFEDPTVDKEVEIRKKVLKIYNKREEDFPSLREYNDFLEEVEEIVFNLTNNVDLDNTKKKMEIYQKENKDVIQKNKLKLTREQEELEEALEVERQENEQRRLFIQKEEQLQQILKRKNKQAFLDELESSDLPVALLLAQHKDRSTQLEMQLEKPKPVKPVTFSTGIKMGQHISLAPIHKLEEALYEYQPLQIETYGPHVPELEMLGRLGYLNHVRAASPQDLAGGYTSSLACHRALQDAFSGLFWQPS
How it was run: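 LANCE Ultra TR-FRET kinase assay using a ULight-labeled peptide substrate and a Eu-labeled anti-phospho antibody, with ATP at its Km. Purified CDK/cyclin complex was added to compound after brief centrifugation.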

MV4-11 = test: Cellular MV4-11 viability assay (CellTiter-Glo, 72 hours); format: cell-based; settings: Homo sapiens
How it was run: as §1

CDK5/p25 = molecular target: T3, CDK5/p25 (Homo sapiens, UniProt Q00535); test: Enzymatic assay for CDK5 (FRET based LANCE Ultra kinase assay); format: biochemical; settings: read-out: CDK5 enzymatic activity (IC50 range)
T3 construct: purchased Invitrogen PR8543B
T3 sequence (Q00535 whole entry): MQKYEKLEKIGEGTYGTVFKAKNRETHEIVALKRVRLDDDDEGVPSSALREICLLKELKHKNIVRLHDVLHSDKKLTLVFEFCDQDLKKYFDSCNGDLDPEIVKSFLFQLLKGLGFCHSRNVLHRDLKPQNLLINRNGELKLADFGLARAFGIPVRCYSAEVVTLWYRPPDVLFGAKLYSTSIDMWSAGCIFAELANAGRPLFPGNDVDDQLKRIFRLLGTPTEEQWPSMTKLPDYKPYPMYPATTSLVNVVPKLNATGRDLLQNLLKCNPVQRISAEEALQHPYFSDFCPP
T3 sequence (Q15078 99-307 partner limits assumed): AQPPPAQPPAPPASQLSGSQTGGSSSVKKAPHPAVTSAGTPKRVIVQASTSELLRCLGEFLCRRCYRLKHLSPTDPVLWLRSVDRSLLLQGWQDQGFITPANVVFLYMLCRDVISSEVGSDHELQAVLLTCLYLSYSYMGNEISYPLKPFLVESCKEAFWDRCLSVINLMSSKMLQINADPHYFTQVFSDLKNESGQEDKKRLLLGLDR
How it was run: as §2

MOLT-4 = test: Cellular MOLT-4 viability assay (CellTiter-Glo, 72 hours); format: cell-based; settings: Homo sapiens, MOLT4 viability assay
How it was run: as §1

CDK1/Cyclin B = molecular target: T4, CDK1/Cyclin B (Homo sapiens, UniProt P06493); test: Enzymatic assay for CDK1 (FRET based LANCE Ultra kinase assay); format: biochemical; settings: read-out: CDK1 enzymatic activity (IC50 range)
T4 construct: purchased Invitrogen PR4768C
T4 sequence (P06493 whole entry): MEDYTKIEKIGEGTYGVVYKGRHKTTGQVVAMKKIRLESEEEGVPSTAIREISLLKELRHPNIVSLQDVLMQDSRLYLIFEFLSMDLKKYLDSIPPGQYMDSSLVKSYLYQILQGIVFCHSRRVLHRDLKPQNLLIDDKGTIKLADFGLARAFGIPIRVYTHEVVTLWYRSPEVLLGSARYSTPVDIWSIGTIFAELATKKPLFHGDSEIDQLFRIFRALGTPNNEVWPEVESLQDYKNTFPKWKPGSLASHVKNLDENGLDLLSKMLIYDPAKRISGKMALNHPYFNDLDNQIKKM
T4 sequence (P14635 whole entry partner): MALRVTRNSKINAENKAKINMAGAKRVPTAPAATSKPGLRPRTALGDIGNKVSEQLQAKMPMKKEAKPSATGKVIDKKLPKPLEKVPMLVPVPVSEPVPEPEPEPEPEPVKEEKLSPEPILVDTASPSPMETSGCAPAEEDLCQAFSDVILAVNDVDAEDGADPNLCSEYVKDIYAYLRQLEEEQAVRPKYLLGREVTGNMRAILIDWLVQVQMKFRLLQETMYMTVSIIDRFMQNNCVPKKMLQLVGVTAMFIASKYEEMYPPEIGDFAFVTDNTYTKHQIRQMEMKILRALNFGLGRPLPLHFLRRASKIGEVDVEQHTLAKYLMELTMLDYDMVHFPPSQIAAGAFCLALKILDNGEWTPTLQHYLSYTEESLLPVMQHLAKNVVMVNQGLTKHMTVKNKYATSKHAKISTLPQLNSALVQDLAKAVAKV
How it was run: as §2

HCT116 = test: Cellular HCT116 viability assay (CellTiter-Glo, 72 hours); format: cell-based; settings: Homo sapiens, HCT-116
How it was run: as §1

## COc1cccc(-n2cccn2)c1CNc1nc(N2CCC(N)CC2)nc2c(C(C)C)cnn12 [Compound 39]
H460
  IC50: 1000 to 10000 nM
MM.1S
  IC50: 1000 to 10000 nM
CDK2/Cyclin A
  IC50: > 1000 nM
RPMI-8226
  IC50: 1000 to 10000 nM
CDK7/Cyclin H/MNAT1
  CDK1/CDK7: Selectivity of CDK7 inhibition over CDK1 inhibition: A (A=greater than 200 fold)
  CDK2/CDK7: Selectivity of CDK7 inhibition over CDK2 inhibition: A (A=greater than 200 fold)
  CDK5/CDK7: Selectivity of CDK7 inhibition over CDK5 inhibition: A (A=greater than 200 fold)
  IC50: < 100 nM
MV4-11
  IC50: 1000 to 10000 nM
CDK5/p25
  IC50: > 1000 nM
MOLT-4
  IC50: > 10000 nM
CDK1/Cyclin B
  IC50: > 1000 nM

## CC(C)c1cnn2c(NCc3ccccc3-n3cc4ccccc4n3)nc(N3CCC(N)CC3)nc12 [Compound 72]
H460
  IC50: < 1000 nM
MM.1S
  IC50: ≤ 1000 nM
CDK2/Cyclin A
  IC50: 100 to 1000 nM
RPMI-8226
  IC50: < 1000 nM
CDK7/Cyclin H/MNAT1
  CDK1/CDK7: Selectivity of CDK7 inhibition over CDK1 inhibition: A (A=greater than 200 fold)
  CDK2/CDK7: Selectivity of CDK7 inhibition over CDK2 inhibition: B (B=less than 200 fold, but greater than 20 fold)
  CDK5/CDK7: Selectivity of CDK7 inhibition over CDK5 inhibition: B (B=less than 200 fold, but greater than 20 fold)
  IC50: < 100 nM
MV4-11
  IC50: < 1000 nM
CDK5/p25
  IC50: 100 to 1000 nM
MOLT-4
  IC50: < 1000 nM
HCT116
  IC50: < 1000 nM
CDK1/Cyclin B
  IC50: 100 to 1000 nM

## CNC(=O)c1ccc2nn(-c3ccccc3CNc3nc(N4CCC(N)CC4)nc4c(C(C)C)cnn34)cc2c1 [Compound 14]
H460
  IC50: < 1000 nM
MM.1S
  IC50: ≤ 1000 nM
CDK2/Cyclin A
  IC50: 100 to 1000 nM
RPMI-8226
  IC50: < 1000 nM
CDK7/Cyclin H/MNAT1
  CDK1/CDK7: Selectivity of CDK7 inhibition over CDK1 inhibition: A (A=greater than 200 fold)
  CDK2/CDK7: Selectivity of CDK7 inhibition over CDK2 inhibition: B (B=less than 200 fold, but greater than 20 fold)
  CDK5/CDK7: Selectivity of CDK7 inhibition over CDK5 inhibition: B (B=less than 200 fold, but greater than 20 fold)
  IC50: < 100 nM
MV4-11
  IC50: < 1000 nM
CDK5/p25
  IC50: 100 to 1000 nM
HCT116
  IC50: < 1000 nM
CDK1/Cyclin B
  IC50: 100 to 1000 nM

## CC(C)c1cnn2c(NCc3c(-n4cccn4)cccc3C(F)(F)F)nc(N3CCC(N)CC3)nc12 [Compound 46]
H460
  IC50: 1000 to 10000 nM
MM.1S
  IC50: 1000 to 10000 nM
CDK2/Cyclin A
  IC50: > 1000 nM
RPMI-8226
  IC50: 1000 to 10000 nM
CDK7/Cyclin H/MNAT1
  CDK1/CDK7: Selectivity of CDK7 inhibition over CDK1 inhibition: A (A=greater than 200 fold)
  CDK2/CDK7: Selectivity of CDK7 inhibition over CDK2 inhibition: A (A=greater than 200 fold)
  CDK5/CDK7: Selectivity of CDK7 inhibition over CDK5 inhibition: A (A=greater than 200 fold)
  IC50: < 100 nM
MV4-11
  IC50: 1000 to 10000 nM
CDK5/p25
  IC50: > 1000 nM
MOLT-4
  IC50: 1000 to 10000 nM
CDK1/Cyclin B
  IC50: > 1000 nM

## CC(C)c1cnn2c(NCc3ccccc3-n3cc4c(n3)CCNC4=O)nc(N3CCC(N)CC3)nc12 [Compound 134]
H460
  IC50: 1000 to 10000 nM
MM.1S
  IC50: 1000 to 10000 nM
CDK2/Cyclin A
  IC50: 100 to 1000 nM
RPMI-8226
  IC50: < 1000 nM
CDK7/Cyclin H/MNAT1
  CDK1/CDK7: Selectivity of CDK7 inhibition over CDK1 inhibition: A (A=greater than 200 fold)
  CDK2/CDK7: Selectivity of CDK7 inhibition over CDK2 inhibition: B (B=less than 200 fold, but greater than 20 fold)
  CDK5/CDK7: Selectivity of CDK7 inhibition over CDK5 inhibition: B (B=less than 200 fold, but greater than 20 fold)
  IC50: < 100 nM
MV4-11
  IC50: < 1000 nM
CDK5/p25
  IC50: 100 to 1000 nM
HCT116
  IC50: < 1000 nM
CDK1/Cyclin B
  IC50: > 1000 nM

## CC(C)c1cnn2c(NCc3ccccc3-c3nccc4ccccc34)nc(N3CCC(N)CC3)nc12 [Compound 79]
H460
  IC50: 1000 to 10000 nM
MM.1S
  IC50: 1000 to 10000 nM
CDK2/Cyclin A
  IC50: > 1000 nM
RPMI-8226
  IC50: 1000 to 10000 nM
CDK7/Cyclin H/MNAT1
  CDK1/CDK7: Selectivity of CDK7 inhibition over CDK1 inhibition: A (A=greater than 200 fold)
  CDK2/CDK7: Selectivity of CDK7 inhibition over CDK2 inhibition: A (A=greater than 200 fold)
  CDK5/CDK7: Selectivity of CDK7 inhibition over CDK5 inhibition: A (A=greater than 200 fold)
  IC50: < 100 nM
MV4-11
  IC50: 1000 to 10000 nM
CDK5/p25
  IC50: > 1000 nM
MOLT-4
  IC50: > 10000 nM
CDK1/Cyclin B
  IC50: > 1000 nM

## CC(C)c1cnn2c(NCc3c(Cl)cccc3-n3cccn3)nc(N3CCC(N)CC3)nc12 [Compound 38]
H460
  IC50: < 1000 nM
MM.1S
  IC50: ≤ 1000 nM
CDK2/Cyclin A
  IC50: > 1000 nM
RPMI-8226
  IC50: < 1000 nM
CDK7/Cyclin H/MNAT1
  CDK1/CDK7: Selectivity of CDK7 inhibition over CDK1 inhibition: A (A=greater than 200 fold)
  CDK2/CDK7: Selectivity of CDK7 inhibition over CDK2 inhibition: A (A=greater than 200 fold)
  CDK5/CDK7: Selectivity of CDK7 inhibition over CDK5 inhibition: B (B=less than 200 fold, but greater than 20 fold)
  IC50: < 100 nM
MV4-11
  IC50: < 1000 nM
CDK5/p25
  IC50: 100 to 1000 nM
MOLT-4
  IC50: 1000 to 10000 nM
CDK1/Cyclin B
  IC50: > 1000 nM

## CC(C)c1cnn2c(NCc3ccccc3-n3cc4cc(Oc5ccccc5)ccc4n3)nc(N3CCC(N)CC3)nc12 [Compound 105]
H460
  IC50: 1000 to 10000 nM
MM.1S
  IC50: ≤ 1000 nM
CDK2/Cyclin A
  IC50: > 1000 nM
RPMI-8226
  IC50: 1000 to 10000 nM
CDK7/Cyclin H/MNAT1
  CDK1/CDK7: Selectivity of CDK7 inhibition over CDK1 inhibition: A (A=greater than 200 fold)
  CDK2/CDK7: Selectivity of CDK7 inhibition over CDK2 inhibition: B (B=less than 200 fold, but greater than 20 fold)
  CDK5/CDK7: Selectivity of CDK7 inhibition over CDK5 inhibition: B (B=less than 200 fold, but greater than 20 fold)
  IC50: < 100 nM
CDK5/p25
  IC50: > 1000 nM
MOLT-4
  IC50: 1000 to 10000 nM
CDK1/Cyclin B
  IC50: > 1000 nM

## CC(C)c1cnn2c(NCc3ccccc3-c3cc4ccccc4[nH]3)nc(N3CCNC(=O)C3)nc12 [Compound 175]
H460
  IC50: 1000 to 10000 nM
MM.1S
  IC50: 1000 to 10000 nM
CDK2/Cyclin A
  IC50: > 1000 nM
RPMI-8226
  IC50: 1000 to 10000 nM
CDK7/Cyclin H/MNAT1
  CDK1/CDK7: Selectivity of CDK7 inhibition over CDK1 inhibition: A (A=greater than 200 fold)
  CDK2/CDK7: Selectivity of CDK7 inhibition over CDK2 inhibition: B (B=less than 200 fold, but greater than 20 fold)
  CDK5/CDK7: Selectivity of CDK7 inhibition over CDK5 inhibition: B (B=less than 200 fold, but greater than 20 fold)
  IC50: < 100 nM
MV4-11
  IC50: 1000 to 10000 nM
CDK5/p25
  IC50: > 1000 nM
HCT116
  IC50: 1000 to 10000 nM
CDK1/Cyclin B
  IC50: > 1000 nM

## CC(C)c1cnn2c(NCc3c(F)cccc3-n3cccn3)nc(N3CCC(N)CC3)nc12 [Compound 42]
H460
  IC50: < 1000 nM
MM.1S
  IC50: ≤ 1000 nM
CDK2/Cyclin A
  IC50: 100 to 1000 nM
RPMI-8226
  IC50: < 1000 nM
CDK7/Cyclin H/MNAT1
  CDK1/CDK7: Selectivity of CDK7 inhibition over CDK1 inhibition: A (A=greater than 200 fold)
  CDK2/CDK7: Selectivity of CDK7 inhibition over CDK2 inhibition: A (A=greater than 200 fold)
  CDK5/CDK7: Selectivity of CDK7 inhibition over CDK5 inhibition: B (B=less than 200 fold, but greater than 20 fold)
  IC50: < 100 nM
MV4-11
  IC50: < 1000 nM
CDK5/p25
  IC50: 100 to 1000 nM
MOLT-4
  IC50: 1000 to 10000 nM
CDK1/Cyclin B
  IC50: > 1000 nM

## CC(C)c1cnn2c(N[C@@H](C)c3ccccc3-n3cccn3)nc(N3CCC(N)CC3)nc12 [Compound 21]
H460
  IC50: < 1000 nM
MM.1S
  IC50: ≤ 1000 nM
CDK2/Cyclin A
  IC50: > 1000 nM
RPMI-8226
  IC50: 1000 to 10000 nM
CDK7/Cyclin H/MNAT1
  CDK1/CDK7: Selectivity of CDK7 inhibition over CDK1 inhibition: A (A=greater than 200 fold)
  CDK2/CDK7: Selectivity of CDK7 inhibition over CDK2 inhibition: A (A=greater than 200 fold)
  CDK5/CDK7: Selectivity of CDK7 inhibition over CDK5 inhibition: A (A=greater than 200 fold)
  IC50: < 100 nM
MV4-11
  IC50: < 1000 nM
CDK5/p25
  IC50: > 1000 nM
HCT116
  IC50: < 1000 nM
CDK1/Cyclin B
  IC50: > 1000 nM
